In brackets after ≈: the same amount, converted by molar mass. Read-outs that look alike come from different tables or passages of the source.
Legend:
[1] = Kinetic solubility in phosphate-buffered saline, pH 7.4; assay type: physicochemical; details: for solubility kinetic at 2 h / solubility at 2 h: 25 °C, pH 7.4, aqueous buffer, kinetic from dmso stock; for solubility at 2 h: PBS solubility
Protocol: Analysis of Aqueous Solubility […]
compound (Ondansetron) were assessed for kinetic solubility in phosphate -buffered saline, pH 7.4.
Phosphate buffered saline, pH 7.4 (Sigma -Aldrich, USA; Cat #P3813) […]
MultiScreen HTS 96 Well Filter Plates (Millipore, Ireland; Cat # MSSLBPC10) […]
Matrix Multichannel Electronic Pipette 2-125 μL, 5-250 μL, 15-1250 μL (Thermo Scientific, USA; […]
Vacuum pump (Millipore, USA; Model # XX5500000)
The measurements were performed using SpectraMax Plus reader in UV -Vis mode. Acquisition and […]
The measurements were performed using SpectraMax Paradigm reader in UV-Vis mode.
Acquisition and analysis of the data were performed using SoftMax Pro v.5.4 (Molecular Devices) […]
Kinetic solubility assay was performed according to the Enamine’s aqueous solubility SOP. Briefly, using a 20 mM stock solution of the compound in 100% DMSO dilutions were prepared to a theoretical concentration of 400 μM in duplicates in phosphate-buffered saline pH 7.4 […]
compound dilutions in PBS were further allowed to equilibrate at 25 °C on a thermostatic shaker for two hours and then filtered through HTS filter plates using a vacuum manifold. The filtrates of test compounds were diluted 2-fold with acetonitrile with 2% DMSO before measuring.
In parallel, compound dilutions in 50% acetonitrile/PBS were prepared to theoretical concentrations […]
calibration curves. Ondansetron was used as reference compound to control proper assay performance. 200 μl of each sample was transferred to 96-well plate and measured in 230-550 nm range with 5 nm step. The effective range of this assay is approximately 2-400 μM and the […]
The concentrations of compounds in PBS filtrate are calculated using a dedicated Microsoft Excel calculation script. Proper absorbance wavelengths for calculations are selected for each compound manually based on absorbance maximums (absolute absorbance unit values for the minimum and maximum concentration points within the 0 – 3 OD range). Each final dataset is visually evaluated by the operator, and goodness of fit (R2) is calculated for each calibration curve. […]
samples were diluted 2-fold with acetonitrile containing internal standard and were analyzed using the HPLC system coupled with a tandem mass spectrometer. The effective range of this assay is […]

physchem = details: pH 7.4, LogD, pH 7.4
in vitro = details: both, human
[2] = system: Aspergillus niger (strain VURV-F 822); assay: Antifungal disk diffusion method; assay type: cell-based
Protocol: Antifungal activity of the synthetic compounds using disk diffusion methods The compounds were tested for plant pathogens Aspergillus niger (strain VURV-F 822), which was received from Culture collection of microorganisms of Crop Research Institute (Prague, Czech […]
The synthetic compounds' antifungal activity was evaluated using a disk diffusion assay for testing filamentous fungi (CLSI M51-A) and broth microdilution antifungal susceptibility testing (EUCAST E.DEF 7.3.1; CLSI M38-A2)
[CLSI M51-A. Method for Antifungal Disk Diffusion Susceptibility Testing of Nondermatophyte Filamentous Fungi; Approved Guideline.CLSI document M51-A. Wayne, PA:
Clinical and Laboratory Standards Institute; 2010. This method is standardized for Altenaria, Aspergillus, Bipolaris, Fusarium, order Mucorales, etc.]
[CLSI M38-A2. 2008. Reference method for broth dilution antifungal susceptibility testing of filamentous fungi, 2nd ed Approved standard M38 -A2 Clinical and Laboratory Standards Institute, […]
Antifungal disk diffusion method
The solutions of fungicides and their analogues were diluted in dimethyl sulfoxide (DMSO) to […]
mg/mL for each test component. Sterile paper disks (ASPECT, Ukraine) were soaked with 10 μl of a solution of the appropriate fungicide from the highest concentration to the lowest.
The fungal strains were cultured on Petri dishes with Saburo dextrose agar (Condalab, Spain) and incubated at 25 °C for 5 days. Sterile Dulbecco's phosphate -buffered saline (DPBS) with 0,1 % Tween 20 was used to cover colonies of fungus for obtained conidia l suspension. Suspension of conidia was adjusted to inoculums 2×10^5 conidia/mL by sterile DPBS.
For antifungal disk diffusion test we used square Petri dishes (FALCON A Corning Brand, USA). The conidial suspension (0.5 mL) was added to Petri dishes with Saburo dextrose agar. The suspension was evenly distributed over the surface of the nutrient medium with a glass spatula.
After the surface of the inoculated medium was dry, the disks with different concentrations of testing compounds were added to the Petri dishes. Each compound was tested in triplicate at different concentrations. Growth control was a disk with 10 μl of DMSO, which was used for test […]
Petri dishes incubated at 25 °C for 72 h. The test compounds at known concentrati on into contact with an inoculated medium then exert a growth-inhibiting effect then a clear zone (the zone of […]
inhibition) appears around the test product. The diameter of a clear zone around the well is […]
If the fungal strain is susceptible to the antifungal agent, then a zone of inhibition appears on the agar plate. If it is resistant to the test compound, then no zone is evident. The size of the zone of inhibition is usually related to the level of antifungal activity present in the compound – a larger […]
The growth rate of all strains for each concentration of test compounds was determined visually and compared with the growth of control.
Broth microdilution antifungal susceptibility testing
A 96-well CELLSTAR plate (sterile, flat-bottomed, polystyrene, transparent) was used to determine MIC by broth microdilution method. Also, dabble straight RPMI-1640 medium with 2% glucose (2x RPMI 2%G) was used for this method. Spore suspension for plate inoculation was prepared according to the method described above for the disc diffusion method.
The each well in the plate contained 49 μl of medium (2x RPMI 2%G), 50 μl of inoculum (prepared in DPBS) and 1 μl of the stock solution of the test substance. Positive control wells contained 50 μl medium and 50 μl inoculum, and sterile control wells contained 50 μl medium and […]
To determine the MIC by the microdilution method, a series of stock solutions of fungicides and their analogues in DMSO with the following concentrations were prepared: 3.2 mg/mL, 1.6 mg/mL, […]
1 μl of the stock solutions of the test substances were added to each well to obtain the following […]
Immediately after adding all the components to the plates, the optical density was measured at […]

[3] = Table S5, injection 1, octanol/PBS pH 7.4
[4] = Table S5, injection 2, octanol/PBS pH 7.4
[5] = Table S5, injection 3, octanol/PBS pH 7.4
[6] = microsomes, pH 7.4, % Remaining, Mean of 2

Compound	solubility kinetic at 2 h [1] [µM]	D [3]	D [4]	D [5]	logD at 1 h (physchem)	solubility at 2 h ([1]; pH 7.4, Incubation 1) [µM]	solubility at 2 h ([1]; pH 7.4, Incubation 2) [µM]	solubility at 2 h ([1]; pH 7.4, Mean) [µM]	also measured
Cc1nc2c([nH]1)-c1ccccc1N(C(=O)c1ccc(NC(=O)c3ccccc3-c3ccccc3)cc1)CC2 [Conivaptan, conivaptan]	5 (≈ 2.49 µg/mL)	1.98E+04	2.11E+04	1.99E+04	4.3	4 (≈ 1.99 µg/mL)	7 (≈ 3.49 µg/mL)	5 (≈ 2.49 µg/mL)	microsomal CLint at 2 μM (in vitro; microsomes, pH 7.4): 31 µL/min/mg; remaining at 40 min, 2 µM (in vitro; microsomes, pH 7.4, % Remaining without cofactor, Mean of 2): 101%; remaining at 25 min, 2 µM (in vitro; [6]): 67%; remaining at 40 min, 2 µM (in vitro; [6]): 60%; half-life at 2 µM (in vitro; microsomes, pH 7.4, t1/2): 54.4 min; k el at 2 µM (in vitro; pH 7.4, kel): 0.000217 s⁻¹
Cn1cc(C(=O)Nc2ccccc2-c2cc(F)c(F)c(F)c2)c(C(F)F)n1 [Fluxapyroxad, fluxapyroxad]	25 (≈ 9.53 µg/mL)	3.37E+03	2.99E+03	3.24E+03					zone of inhibition at 4 µg/mL ([2]; Concentration 0.004 mg/mL, 0 = absence of antifungal activity, Boscalid, Fluxapyroxad, Bixafen marked st, read-out: Diameter of inhibition zone): 8 ± 2 mm; zone of inhibition at 8 µg/mL ([2]; Concentration 0.008 mg/mL, 0 = absence of antifungal activity, read-out: Diameter of inhibition zone): 11.8 ± 1.25 mm; zone of inhibition at 16 µg/mL ([2]; Concentration 0.016 mg/mL, 0 = absence of antifungal activity, read-out: Diameter of inhibition zone): 14.5 ± 0.5 mm; zone of inhibition at 30 µg/mL ([2]; Concentration 0.03 mg/mL, 0 = absence of antifungal activity, (±)-29 marked st, read-out: Diameter of inhibition zone): 18.2 ± 0.4 mm; zone of inhibition at 60 µg/mL ([2]; Concentration 0.06 mg/mL, 0 = absence of antifungal activity, Fluxapyroxad, Bixafen, (±)-29 marked st, read-out: Diameter of inhibition zone): 22.2 ± 1.25 mm; zone of inhibition at 120 µg/mL ([2]; Concentration 0.12 mg/mL, (±)-28 marked st (static growth), read-out: Diameter of inhibition zone): 25.2 ± 1.5 mm; zone of inhibition at 250 µg/mL ([2]; Concentration 0.25 mg/mL, (±)-28 marked st (static growth, secondary growth of mycelium), read-out: Diameter of inhibition zone): 30 ± 0.5 mm; zone of inhibition at 500 µg/mL ([2]; Concentration 0.5 mg/mL, 10 μl per disk, read-out: Diameter of inhibition zone): 34.5 ± 0.75 mm; zone of inhibition at 1000 µg/mL ([2]; Concentration 1 mg/mL, 10 μl per disk, read-out: Diameter of inhibition zone): 39.2 ± 2.25 mm; zone of inhibition at 2000 µg/mL ([2]; Concentration 2 mg/mL, 10 μl per disk, read-out: Diameter of inhibition zone): 40.8 ± 1.6 mm; MIC ([2]; disk diffusion, small zones of inhibition with secondary mycelial growth, read-out: minimum inhibitory concentration): 4 µg/mL (≈ 10.5 µM)
Cc1nccn1CC1CCc2c(c3ccccc3n2C)C1=O (stereo not drawn) [Ondansetron, reference compound]						126 (≈ 37 µg/mL)	126 (≈ 37 µg/mL)	126 (≈ 37 µg/mL)	PBS solubility, pH 7.4, Incubation 1 ([1]; Table S1, 1st batch): 121 µM; PBS solubility, pH 7.4, Incubation 2 ([1]; Table S1, 1st batch): 119 µM

Second part, led by results:

solubility kinetic at 2 h [1] [µM]	D [3]	D [4]	D [5]	logD at 1 h (physchem)	Compound	solubility at 2 h ([1]; pH 7.4, Incubation 1) [µM]	solubility at 2 h ([1]; pH 7.4, Incubation 2) [µM]	solubility at 2 h ([1]; pH 7.4, Mean) [µM]	also measured
3 (≈ 2.08 µg/mL)	5.98E+08	3.42E+05	6.79E+04		O=C(NC1CCN(CCCCC2(C(=O)NCC(F)(F)F)c3ccccc3-c3ccccc32)CC1)c1ccccc1-c1ccc(C(F)(F)F)cc1 [Lomitapide, lomitapide]				
				2.82	COC(=O)Nc1nc2ccc(C(=O)c3ccccc3)cc2[nH]1 [Mebendazole]				

— article PMC10718076, “1,2-Disubstituted bicyclo[2.1.1]hexanes as saturated bioisosteres of ortho-substituted benzene” (Chemical Science, 2023)
